Data: patent US10251395B2, “Substituted furano-/thienocycloalkylamino-2-pyrimidine derivatives and use thereof for controlling undesired plant growth” (Bayer CropScience Aktiengesellschaft, priority 2015, dated 2019)

Assays:
logP (HCOOH) = format: physicochemical; conditions: HCOOH
Excerpt: Table 2 (physicochemical characterization of selected synthesis examples)

Viola tricolor [1] = test: Post-emergence herbicidal effect; format: in vivo; conditions: assessed visually after about 3 weeks vs untreated controls
Summary of the method: (§1)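 Greenhouse post-emergence spray: one-leaf seedlings, sandy loam, aqueous WP/EC formulation with 0.2% wetting agent at 600–800 L/ha. Visual assessment after ~3 weeks, as % activity relative to untreated controls.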

Amaranthus retroflexus [2] = test: Post-emergence herbicidal effect; format: in vivo; conditions: assessed visually after about 3 weeks vs untreated controls
Summary of the method: as §1

Veronica persica [3] = test: Pre-emergence herbicidal effect; format: in vivo; conditions: scored visually after 3 weeks
Summary of the method: (§2)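 Visual damage score in % after 3 weeks in the greenhouse, relative to untreated controls (0% like control, 100% plants dead). Compounds were sprayed pre-emergence onto covering soil over seeds sown in sandy loam, as WP or EC in water at 600 to 800 L/ha plus 0.2% wetting agent.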

Polygonum convolvulus = test: Pre-emergence herbicidal effect; format: in vivo; conditions: scored visually after 3 weeks
Summary of the method: as §2

Stellaria media [4] = test: Pre-emergence herbicidal effect; format: in vivo; conditions: scored visually after 3 weeks
Summary of the method: as §2

Viola tricolor [5] = test: Pre-emergence herbicidal effect; format: in vivo; conditions: scored visually after 3 weeks
Summary of the method: as §2

Matricaria inodora = test: Pre-emergence herbicidal effect; format: in vivo; conditions: scored visually after 3 weeks
Summary of the method: as §2

Amaranthus retroflexus [6] = test: Pre-emergence herbicidal effect; format: in vivo; conditions: scored visually after 3 weeks
Summary of the method: as §2

Veronica persica [7] = test: Post-emergence herbicidal effect; format: in vivo; conditions: assessed visually after about 3 weeks vs untreated controls
Summary of the method: as §1

Stellaria media [8] = test: Post-emergence herbicidal effect; format: in vivo; conditions: assessed visually after about 3 weeks vs untreated controls
Summary of the method: as §1

Ipomoea purpurea = test: Post-emergence herbicidal effect; format: in vivo; conditions: 320 g/ha, assessed visually after about 3 weeks vs untreated controls
Summary of the method: as §1

Echinochloa crus-galli [9] = test: Post-emergence herbicidal effect; format: in vivo; conditions: 320 g/ha, assessed visually after about 3 weeks vs untreated controls
Summary of the method: as §1

Setaria viridis = test: Pre-emergence herbicidal effect; format: in vivo; conditions: scored visually after 3 weeks
Summary of the method: as §2

Abutilon theophrasti = test: Pre-emergence herbicidal effect; format: in vivo; conditions: Dosage 320 g/ha, scored visually after 3 weeks
Summary of the method: as §2

Echinochloa crus-galli [10] = test: Pre-emergence herbicidal effect; format: in vivo; conditions: scored visually after 3 weeks
Summary of the method: as §2

Alopecurus myosuroides = test: Pre-emergence herbicidal effect; format: in vivo; conditions: Dosage 320 g/ha, scored visually after 3 weeks
Summary of the method: as §2

Cc1cc2c(s1)CCCC2Nc1nc(N)c([S+](C)[O-])c(C(F)(F)F)n1 (racemic) [compound 35]
logP (HCOOH) (logP (HCOOH)): oily; logP (HCOOH): 3.44; 1H NMR (CDCl3, 400 MHZ, δ in ppm): 1.85 (m, 3H, 3H of
post-emergence efficacy VIOTR (Viola tricolor [1]; 320 g/ha): 90%
post-emergence efficacy AMARE (Amaranthus retroflexus [2]; 320 g/ha): 80%
VERPE pre-emergence efficacy (herbicidal activity) (Veronica persica [3]; Dosage 320 g/ha): 90%
POLCO pre-emergence efficacy (herbicidal activity) (Polygonum convolvulus; Dosage 320 g/ha): 90%
STEME pre-emergence efficacy (herbicidal activity) (Stellaria media [4]; Dosage 320 g/ha): 100%
VIOTR pre-emergence efficacy (herbicidal activity) (Viola tricolor [5]; Dosage 320 g/ha): 100%
MATIN pre-emergence efficacy (herbicidal activity) (Matricaria inodora; Dosage 320 g/ha): 90%
AMARE pre-emergence efficacy (herbicidal activity) (Amaranthus retroflexus [6]; Dosage 320 g/ha): 90%

Nc1nc(NC2CCCc3sccc32)ncc1S(=O)(=O)C1CC1 (racemic) [compound 36]
logP (HCOOH) (logP (HCOOH)): solid; m.p.: 243.3° C.; logP (HCOOH): 2.12; 1H NMR (CDCl3, 400 MHZ, δ in ppm):
post-emergence efficacy VERPE (Veronica persica [7]; 320 g/ha): 80%
post-emergence efficacy STEME (Stellaria media [8]; 320 g/ha): 80%
post-emergence efficacy VIOTR (Viola tricolor [1]; 80 g/ha): 100%
post-emergence efficacy VIOTR (Viola tricolor [1]; 320 g/ha): 100%
VERPE pre-emergence efficacy (herbicidal activity) (Veronica persica [3]; Dosage 80 g/ha): 90%
VERPE pre-emergence efficacy (herbicidal activity) (Veronica persica [3]; Dosage 320 g/ha): 100%
STEME pre-emergence efficacy (herbicidal activity) (Stellaria media [4]; Dosage 80 g/ha): 100%
STEME pre-emergence efficacy (herbicidal activity) (Stellaria media [4]; Dosage 320 g/ha): 100%
VIOTR pre-emergence efficacy (herbicidal activity) (Viola tricolor [5]; Dosage 80 g/ha): 100%
VIOTR pre-emergence efficacy (herbicidal activity) (Viola tricolor [5]; Dosage 320 g/ha): 100%
MATIN pre-emergence efficacy (herbicidal activity) (Matricaria inodora; Dosage 80 g/ha): 100%
MATIN pre-emergence efficacy (herbicidal activity) (Matricaria inodora; Dosage 320 g/ha): 100%
AMARE pre-emergence efficacy (herbicidal activity) (Amaranthus retroflexus [6]; Dosage 80 g/ha): 100%
AMARE pre-emergence efficacy (herbicidal activity) (Amaranthus retroflexus [6]; Dosage 320 g/ha): 100%

CS(=O)(=O)c1cnc(NC2CCCc3sc(Cl)cc32)nc1N (racemic) [compound 42]
logP (HCOOH) (logP (HCOOH)): oily; logP (HCOOH): 2.33; 1H NMR (CDCl3, 400 MHZ, δ in ppm): 1.80 (m, 1H, 1H of
post-emergence efficacy VERPE (Veronica persica [7]; 80 g/ha): 90%
post-emergence efficacy VERPE (Veronica persica [7]; 320 g/ha): 100%
post-emergence efficacy STEME (Stellaria media [8]; 80 g/ha): 90%
post-emergence efficacy STEME (Stellaria media [8]; 320 g/ha): 100%
post-emergence efficacy VIOTR (Viola tricolor [1]; 80 g/ha): 90%
post-emergence efficacy VIOTR (Viola tricolor [1]; 320 g/ha): 100%
post-emergence efficacy AMARE (Amaranthus retroflexus [2]; 320 g/ha): 90%
post-emergence efficacy PHBPU (Ipomoea purpurea): 80%
post-emergence efficacy ECHCG (Echinochloa crus-galli [9]): 100%
SETVI pre-emergence efficacy (herbicidal activity) (Setaria viridis; Dosage 80 g/ha): 100%
SETVI pre-emergence efficacy (herbicidal activity) (Setaria viridis; Dosage 320 g/ha): 100%
VERPE pre-emergence efficacy (herbicidal activity) (Veronica persica [3]; Dosage 80 g/ha): 100%
VERPE pre-emergence efficacy (herbicidal activity) (Veronica persica [3]; Dosage 320 g/ha): 100%
ABUTH pre-emergence efficacy (herbicidal activity) (Abutilon theophrasti): 100%
POLCO pre-emergence efficacy (herbicidal activity) (Polygonum convolvulus; Dosage 320 g/ha): 80%
STEME pre-emergence efficacy (herbicidal activity) (Stellaria media [4]; Dosage 80 g/ha): 100%
STEME pre-emergence efficacy (herbicidal activity) (Stellaria media [4]; Dosage 320 g/ha): 100%
VIOTR pre-emergence efficacy (herbicidal activity) (Viola tricolor [5]; Dosage 80 g/ha): 100%
VIOTR pre-emergence efficacy (herbicidal activity) (Viola tricolor [5]; Dosage 320 g/ha): 100%
MATIN pre-emergence efficacy (herbicidal activity) (Matricaria inodora; Dosage 80 g/ha): 100%
MATIN pre-emergence efficacy (herbicidal activity) (Matricaria inodora; Dosage 320 g/ha): 100%
AMARE pre-emergence efficacy (herbicidal activity) (Amaranthus retroflexus [6]; Dosage 80 g/ha): 100%
AMARE pre-emergence efficacy (herbicidal activity) (Amaranthus retroflexus [6]; Dosage 320 g/ha): 100%
ECHCG pre-emergence efficacy (herbicidal activity) (Echinochloa crus-galli [10]; Dosage 80 g/ha): 100%
ECHCG pre-emergence efficacy (herbicidal activity) (Echinochloa crus-galli [10]; Dosage 320 g/ha): 100%

Cc1cc2c(s1)CCC2Nc1ncc(S(=O)(=O)C(C)C)c(N)n1 (racemic) [compound 63]
logP (HCOOH) (logP (HCOOH)): solid; logP (HCOOH): 2.40; 1H NMR (CDCl3, 400 MHZ, δ in ppm): 1.35 (d, 6H, 6H
post-emergence efficacy VIOTR (Viola tricolor [1]; 80 g/ha): 90%
post-emergence efficacy VIOTR (Viola tricolor [1]; 320 g/ha): 90%
post-emergence efficacy AMARE (Amaranthus retroflexus [2]; 80 g/ha): 10%
post-emergence efficacy AMARE (Amaranthus retroflexus [2]; 320 g/ha): 40%
SETVI pre-emergence efficacy (herbicidal activity) (Setaria viridis; Dosage 320 g/ha): 100%
ALOMY pre-emergence efficacy (herbicidal activity) (Alopecurus myosuroides): 100%
POLCO pre-emergence efficacy (herbicidal activity) (Polygonum convolvulus; Dosage 80 g/ha): 20%
POLCO pre-emergence efficacy (herbicidal activity) (Polygonum convolvulus; Dosage 320 g/ha): 100%
STEME pre-emergence efficacy (herbicidal activity) (Stellaria media [4]; Dosage 80 g/ha): 100%
STEME pre-emergence efficacy (herbicidal activity) (Stellaria media [4]; Dosage 320 g/ha): 100%
VIOTR pre-emergence efficacy (herbicidal activity) (Viola tricolor [5]; Dosage 80 g/ha): 100%
VIOTR pre-emergence efficacy (herbicidal activity) (Viola tricolor [5]; Dosage 320 g/ha): 100%
MATIN pre-emergence efficacy (herbicidal activity) (Matricaria inodora; Dosage 80 g/ha): 100%
MATIN pre-emergence efficacy (herbicidal activity) (Matricaria inodora; Dosage 320 g/ha): 100%
